Columns and labels:
Format in all cases: cell-based
K562 = assay: Cell proliferation assay, K562; conditions: Homo sapiens
Protocol: (§1) A panel of cancer cell lines may be obtained from the DCTP Tumor Repository, National Cancer Institute (Frederick, Md.) or ATCC (Rockville, Md.). Cell cultures are maintained in Hyclone RPMI 1640 medium (Logan, Utah) supplemented with 10% fetal bovine serum and 20 mM HEPES buffer, final pH 7.2, at 37° C. with a 5% CO2 atmosphere. Cultures are maintained at sub-confluent densities. Human umbilical vein endothelial cells (HUVEC) are purchased from Clonetics, a division of Cambrex (Walkersville, Md.). Cultures are established from cryopreserved stocks using Clonetics EGM-2 medium supplemented with 20 mM HEPES, final pH 7.2, at 37° C. with a 5% CO2 atmosphere.
(§2) For proliferation assays, cells are seeded with the appropriate medium into 96 well plates at 1,000-2,500 cells per well, depending on the cell line, and are incubated overnight. The following day, test compound, DMSO solution (negative control), or Actinomycin D (positive control) is added to the appropriate wells as 10× concentrated stocks prepared in phosphate buffered saline. The cell plates are then incubated for an additional 2-5 days, depending on the cell line, to allow proliferation to occur. To measure cell density, 50 μL of WST-1 solution (Roche Applied Science, IN) diluted 1:5 in phosphate buffered saline is added to each well, and the cells incubated for an additional 1-5 hrs, again depending on the cell line. Optical density is determined for each well at […] using a Tecan GeniosPro plate reader (RTP, NC). The percentage of cell growth is determined by comparing the cell growth in the presence of test compounds to the cells treated with DMSO vehicle (control, 100% growth) and cells treated with Actinomycin D (10 μM, 0% growth).
(§3) Immediately after the WST-1 determination, the medium is removed from the cell lines, and the plates stored at −80° C. Using these assay plates, relative amounts of DNA in each well are determined using the Cyquant DNA assay kit from […] (Eugene, Oreg.) following the manufacturer's directions. Results for each compound treatment are compared to DMSO vehicle control (100%) and 10 μM Actinomycin D treated cells (0%).

A375 = assay: Cell proliferation assay, A375; conditions: Homo sapiens, A-375
Protocol: as §1, §2, §3

NCI-H460 = assay: Cell proliferation assay, NCI-H460; conditions: Homo sapiens
Protocol: as §1, §2, §3

PC-3 = assay: Cell proliferation assay, PC-3; conditions: Homo sapiens
Protocol: as §1, §2, §3

HSP70 = assay: A375 imaging assay, HSP70 induction; conditions: Homo sapiens, A-375, 24 hours treatment
Protocol: (§4) Cells of multiple human tumor lines were plated in Packard Viewplate-96, incubated overnight, and then treated with test compound for 24 hours. Following treatment, cell monolayers were fixed using standard methods and treated with antibodies targeted to the indicated Hsp90 clients. Primary antibodies were detected using a fluoroscene isothiocyanate (FITC)-conjugated anti-mouse antibody and a tetramethyl rhodamine isothiocyanate (TRITC)-conjugated anti-rabbit antibody. Deoxyribonucleic acid was stained and images were obtained using the compartmental analysis algorithm on a Cellomics Array scan 4.5 according to manufacturer instructions. Average intensities for vehicle control and treated wells were compared with test compound-treated cells to determine the 50% efficacious concentration (EC50) values. This methodology was augmented with an alternative method of immune-detection for p-Akt levels. Luminex detection of p-Akt used to directly assay the client effect, Akt, as well as the competency of the signaling cascade, as indicated by phosphorylation of S6 kinase.

pS6 = assay: A375 imaging assay, pS6 inhibition; conditions: Homo sapiens, A-375, 24 hours treatment
Protocol: as §4

pErk = assay: AU565 imaging assay, pErk inhibition; conditions: Homo sapiens, 24 hours treatment
Protocol: as §4

Her2 = assay: AU565 imaging assay, Her2 degradation; conditions: Homo sapiens, 24 hours treatment
Protocol: as §4

Row | IC50 (K562) [nM] | IC50 (A375) [nM] | IC50 (NCI-H460; NCI-H46 (Table 2A)) [nM] | IC50 (PC-3) [nM] | EC50 (HSP70) [nM] | EC50 (pS6) [nM] | EC50 (pErk) [nM] | EC50 (Her2) [nM] | IC50 (NCI-H460; NCI-H460 (Table 2B)) [nM] | Compound
1 | 277 ± 81.8 | 76 ± 43.1 | 167 ± 22.4 | 44.1 ± 6.1 | 37.2 | 28.5 | 101 | 35.8 | – | Cc1nn(-c2cc(F)c(C(N)=O)c(N[C@H]3CC[C@H](O)CC3)c2)c2c1CCC(C)(C)C2 [EX-009, 2-fluoro-6-((1r,4r)-4-hydroxycyclohexylamino)-4-(3,6,6-trimethyl-4,5,6,7-tetrahydro-1H-indazol-1-yl)benzamide]
2 | 1690 | 2580 | 2130 | 1550 | – | – | – | – | – | CC1=CC(C)(C)Cc2c1c(C)nn2-c1cc(F)c(C(N)=O)c(N[C@H]2CC[C@H](O)CC2)c1 [EX-017, 2-fluoro-6-((1R,4R)-4-hydroxycyclohexylamino)-4-(3,4,6,6-tetramethyl-6,7-dihydro-1H-indazol-1-yl)benzamide]
3 | 250 ± 77.5 | 69.7 ± 9.3 | 142 ± 59 | 40.5 ± 7.9 | 54 | 59.1 | 112 | 51 | – | Cc1nn(-c2cc(F)c(C(N)=O)c(N[C@H]3CC[C@H](O)CC3)c2)c2c1C=CC(C)(C)C2 [EX-008, 2-fluoro-6-((1r,4r)-4-hydroxycyclohexylamino)-4-(3,6,6-trimethyl-6,7-dihydro-1H-indazol-1-yl)benzamide]
4 | 4280 | 9520 | 8590 | 5120 | – | – | – | – | – | Cc1nn(-c2cc(F)c(C(N)=O)c(NC3CCCCC3)c2)c2c1CCC(C)(C)C2 [EX-011, 2-(cyclohexylamino)-6-fluoro-4-(3,6,6-trimethyl-4,5,6,7-tetrahydro-1H-indazol-1-yl)benzamide]
5 | 242 ± 118 | 176 ± 145 | – | 160 ± 81.4 | 77.7 | 156 | 360 | 329 | 3170 ± 791 | Cc1nn(-c2cc(F)c(C(N)=O)c(N[C@H]3CCOC3)c2)c2c1CCC(C)(C)C2 [EX-013, (S)-2-fluoro-6-(tetrahydrofuran-3-ylamino)-4-(3,6,6-trimethyl-4,5,6,7-tetrahydro-1H-indazol-1-yl)benzamide]
6 | 363 ± 57.4 | 630 ± 106 | – | 364 ± 7.8 | 464 | 115 | 457 | 329 | 1370 ± 325 | Cc1nn(-c2cc(F)c(C(N)=O)c(N[C@@H]3CCCC[C@H]3O)c2)c2c1C=CC(C)(C)C2 [EX-014, 2-fluoro-6-((1R,2R)-2-hydroxycyclohexylamino)-4-(3,6,6-trimethyl-6,7-dihydro-1H-indazol-1-yl)benzamide]
7 | 359 ± 42.4 | 448 ± 50.2 | – | 344 ± 10.2 | 346 | 241 | 820 | 667 | 1910 ± 513 | Cc1nn(-c2cc(F)c(C(N)=O)c(N[C@H]3CCCC[C@@H]3O)c2)c2c1CCC(C)(C)C2 [EX-015, 2-fluoro-6-((1S,2S)-2-hydroxycyclohexylamino)-4-(3,6,6-trimethyl-4,5,6,7-tetrahydro-1H-indazol-1-yl)benzamide]
8 | 6340 | 10200 | 6550 | 6490 | – | – | – | – | – | Cc1nn(-c2cc(F)c(C(N)=O)c(N[C@H]3CC[C@H](O)CC3)c2)c2c1C(C)CC(C)(C)C2 (stereo partly drawn) [EX-016, 2-fluoro-6-((1R,4R)-4-hydroxycyclohexylamino)-4-(3,4,6,6-tetramethyl-4,5,6,7-tetrahydro-1H-indazol-1-yl)benzamide]
9 | 172 ± 72.3 | 242 ± 192 | – | < 80 | 45.4 | 73.8 | 322 | 205 | 1380 ± 425 | Cc1nn(-c2cc(F)c(C(N)=O)c(NC3CCOC3)c2)c2c1C=CC(C)(C)C2 (stereo not drawn) [EX-012, 2-fluoro-6-(tetrahydrofuran-3-ylamino)-4-(3,6,6-trimethyl-6,7-dihydro-1H-indazol-1-yl)benzamide]
10 | 92.3 ± 32.7 | 1 ± 0.466 | – | 74.1 ± 70.6 | 0.092 | 4.3 | 1.5 | 0.366 | 41.4 ± 18.4 | Cc1nn(-c2cc(F)c(C(N)=O)c(N[C@H]3CCC[C@@H]3O)c2)c2c1CCC(C)(C)C2 [EX-007, 2-fluoro-6-((1S,2S)-2-hydroxycyclopentylamino)-4-(3,6,6-trimethyl-4,5,6,7-tetrahydro-1H-indazol-1-yl)benzamide]

Row | Compound | IC50 (K562) [nM] | IC50 (A375) [nM] | IC50 (NCI-H460; NCI-H46 (Table 2A)) [nM] | IC50 (PC-3) [nM] | EC50 (HSP70) [nM] | EC50 (pS6) [nM] | EC50 (pErk) [nM] | EC50 (Her2) [nM] | IC50 (NCI-H460; NCI-H460 (Table 2B)) [nM]
11 | Cc1nn(-c2cc(F)c(C(N)=O)c(NC3CCCCC3)c2)c2c1C=CC(C)(C)C2 [EX-010, 2-(cyclohexylamino)-6-fluoro-4-(3,6,6-trimethyl-6,7-dihydro-1H-indazol-1-yl)benzamide] | 48000 | 2260 | 5080 | 3310 | – | – | – | – | –

— patent publication US10246421B2, “Indazolyl- and indolyl-benzamide derivatives” (ESANEX, INC., priority 2014, dated 2019)
